Laboratory results taken from USRE47193E1, “Selectively substituted quinoline compounds” (EISAI R&D MANAGEMENT CO., LTD., priority 2013, dated 2019).

Assays:
mouse TLR7 = target: T1, mouse TLR7 (Mus musculus, UniProt P58681); experiment: Short-term in vivo (STIV) assay: oral dosing, R848 s.c., plasma IL-6; design: female BALB/c mice (Jackson Labs, Bar Harbor, Me.) were dosed by oral gavage; tissue Jackson Labs; host or cells: living female BALB/c mice; plasma IL-6 after s.c. R848; conditions: 100 mg/kg
T1 sequence (P58681 27-1050): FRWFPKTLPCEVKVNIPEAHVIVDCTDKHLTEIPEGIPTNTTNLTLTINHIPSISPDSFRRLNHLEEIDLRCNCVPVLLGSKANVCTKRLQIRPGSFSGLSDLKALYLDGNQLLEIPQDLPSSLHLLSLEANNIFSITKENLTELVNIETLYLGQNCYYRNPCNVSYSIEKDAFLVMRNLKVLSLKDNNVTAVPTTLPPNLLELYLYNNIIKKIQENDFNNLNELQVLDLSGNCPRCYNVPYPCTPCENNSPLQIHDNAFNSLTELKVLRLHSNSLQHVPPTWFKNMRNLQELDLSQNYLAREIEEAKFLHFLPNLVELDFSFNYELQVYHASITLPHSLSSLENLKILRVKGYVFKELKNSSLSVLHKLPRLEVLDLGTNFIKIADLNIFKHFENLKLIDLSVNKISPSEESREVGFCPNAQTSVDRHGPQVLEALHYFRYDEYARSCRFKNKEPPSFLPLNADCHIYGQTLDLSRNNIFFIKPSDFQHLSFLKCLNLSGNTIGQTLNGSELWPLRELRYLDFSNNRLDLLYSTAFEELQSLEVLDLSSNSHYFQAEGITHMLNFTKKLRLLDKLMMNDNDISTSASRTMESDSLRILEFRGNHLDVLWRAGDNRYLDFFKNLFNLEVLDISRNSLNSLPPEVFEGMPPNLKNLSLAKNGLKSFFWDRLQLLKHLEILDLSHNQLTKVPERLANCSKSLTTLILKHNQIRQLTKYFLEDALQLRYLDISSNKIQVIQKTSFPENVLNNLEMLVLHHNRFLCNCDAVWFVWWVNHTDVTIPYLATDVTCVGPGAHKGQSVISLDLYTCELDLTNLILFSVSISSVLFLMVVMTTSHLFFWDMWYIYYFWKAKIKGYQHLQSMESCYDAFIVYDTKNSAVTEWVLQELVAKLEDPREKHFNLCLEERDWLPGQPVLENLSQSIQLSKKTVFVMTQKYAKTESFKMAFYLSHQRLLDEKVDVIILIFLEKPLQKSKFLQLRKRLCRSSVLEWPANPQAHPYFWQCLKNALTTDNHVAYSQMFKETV
Description: Figure Legend: Female BALB/c mice were dosed by oral gavage with Vehicle alone (0.5% aqueous methyl-cellulose) or compound formulated in Vehicle at 33 mg/kg, 100 mg/kg or 300 mg/kg. […] (FIG. 1A).
Short-term in vivo (STIV) assay: To assess compound potency in vivo against mouse TLR7, a short-term in vivo (STIV) assay was utilized. Briefly, mice were orally dosed with compounds and at various time points afterwards were injected subcutaneously with agonist R848 to stimulate TLR7. The plasma IL-6 level following R848 stimulation was then measured by ELISA to assess compound potency and duration-of-action.
Short-term in vivo (STIV) assay. Six to eight week old female BALB/c mice (Jackson Labs, Bar Harbor, Me.) were dosed by oral gavage in 200 ul volume with antagonist compounds formulated in 0.5% aqueous methyl-cellulose (Sigma, St. Louis, Mo.). At various time points afterwards, mice were injected subcutaneously (s.c.) in 100 ul volume with 15 ug R848 (Resiquimod; GLSynthesis, Worcester, Mass.) to stimulate TLR7.

Human TLR7/8 = experiment: Human PBMC cell-based assay, TLR7/8 stimulus (RNA-Ig), cytokine ELISA; conditions: primary human PBMC assay, TLR7/8 potency; ligand not given; read-out: Human PBMCs IC50
Description: Human PBMC Cell-Based Assay. Human peripheral blood mononuclear cells (PBMC) were isolated from freshly-drawn heparinized (10 USP units/ml, Hospira, Lakeforest, Ill.) healthy donor whole blood by density gradient (Histopaque® 1077, Sigma, Inc., St. Louis, Mo.). Briefly, 25 ml blood was diluted with 15 ml PBS (without Ca^2+, Mg^2+) in a 50 ml conical tube, and 12 ml Histopaque was underlaid using a spinal needle. Tubes were centrifuged for 45 minutes at 1200 rpm (350×g), and PBMC were collected from the buffy coat. Cells were then washed twice in PBS, and red blood cells were lysed by suspension in 5 ml ammonium chloride solution (1× Red Blood Cell Lysis Buffer, eBioscience) for 5 minutes at room temperature. After a final wash in PBS, PBMC were resuspended at a final concentration of 2×10^6/ml in RPMI-1640 media with L-glutamine (Invitrogen) and supplemented with 25 mM HEPES (Mediatech, Inc, Manassas Va.), 10% fetal bovine serum (HyClone, Logan, Utah), and Penicillin-Streptomycin-Glutamine (Mediatech) and plated at 100 ul/well (2×10^5 cells/well) in tissue culture treated 96-well plates (Falcon).
Antagonist compounds solubilized and serial diluted in 100% DMSO were added in triplicate to cells to yield a final concentration of 0.1% DMSO (v/v). Hydroxychloroquine (Acros Organics) solubilized and serial diluted in PBS was added in triplicate to cells. PBMC were incubated with antagonist compounds or HCQ for 30 minutes at 37° C., 5% CO2 before adding various TLR agonist reagents in 100 ul complete media per well as follows (final concentrations indicated): R848 (Resiquimod; GLSynthesis, Worcester, Mass.) at 1 uM for TLR7 and TLR8, LPS (Sigma) at 10 ng/ml for TLR4, and CpG-2216 (InvivoGen) at 5 ug/ml for TLR9. To prepare a TLR7/8 agonist that mimics RNA-containing auto-antibody immune complexes in lupus patients, a 26-mer RNA with a sequence derived from human U1 snRNA stem loop IV [(sequence: […]-[…] (SEQ ID NO: 2) with phosphorothioate backbone] was synthesized (Dharmacon, Inc., Lafayette, Colo.), which has been shown previously to be a potent TLR7 and TLR8 agonist. This RNA molecule was diluted to 2.5 μM in serum-free RPMI, and mouse anti-human single stranded DNA monoclonal antibody (MAB3034, Millipore, Inc., Billerica, Mass.), which also cross-reacts with RNA, was added at a 1:25 dilution or at 1 ug/ml. The resulting “RNA-Ig” stimulus was incubated at room temperature for 15-30 minutes before adding to cells. PBMC were incubated with the various TLR agonists for 20 hours at 37° C., 5% CO2. Cell culture supernatants were collected, and levels of various human cytokines were assessed as indicated by standard ELISA procedure according to the manufacturer's recommended protocol (BD Biosciences, Inc., San Diego, Calif.). In a subsequent assay (Table 6) the ability of ER-899742 to block stimulation of normal PBMC by various TLR7/8 ligands, but not DNA-mediated activation of TLR9, was examined. In this assay cells were plated at 1×10^5 cells/well in 100 ul in 96-well plates.

## CC1CN(c2ccc(C#N)c3ncccc23)CC(C(=O)NC2CNCCC2F)O1.Cl (mixture of isomers) [ER-899477]
Mouse TLR7; 6 h
  % Suppression vs. Vehicle: 96%
Mouse TLR7; 13 h
  % Suppression vs. Vehicle: 68%
Human TLR7/8
  IC50: 6 nM

## COCCNC(=O)C1CN(c2ccc(C#N)c3ncccc23)CC(C)O1 (stereo not drawn) [ER-897385]
Human TLR7/8
  IC50: 142 nM

## CC(O)CNC(=O)C1CN(c2ccc(C#N)c3ncccc23)CC(C)O1 (stereo not drawn) [ER-897445]
Human TLR7/8
  IC50: 104 nM

## CC(CO)NC(=O)C1CN(c2ccc(C#N)c3ncccc23)CC(C)O1 (stereo not drawn) [ER-897446]
Human TLR7/8
  IC50: 53 nM

## CC(CO)NC(=O)C1CN(c2ccc(C#N)c3ncccc23)CC(C)O1 (stereo not drawn) [ER-897447]
Human TLR7/8
  IC50: 100 nM

## CCC(CO)NC(=O)C1CN(c2ccc(C#N)c3ncccc23)CC(C)O1 (stereo not drawn) [ER-897827]
Human TLR7/8
  IC50: 39 nM

## CC1CN(c2ccc(C#N)c3ncccc23)CC(C(=O)NC(CO)C(C)C)O1 (stereo not drawn) [ER-897828]
Human TLR7/8
  IC50: 21 nM

## CCC(O)CNC(=O)C1CN(c2ccc(C#N)c3ncccc23)CC(C)O1 (stereo not drawn) [ER-897922]
Human TLR7/8
  IC50: 64 nM

## CC1CN(c2ccc(C#N)c3ncccc23)CC(C(=O)NC2CCCCC2O)O1 (stereo not drawn) [ER-897938]
Human TLR7/8
  IC50: 16 nM

## CC1CN(c2ccc(C#N)c3ncccc23)CC(C(=O)NC(CO)C(C)(C)C)O1 (stereo not drawn) [ER-897940]
Human TLR7/8
  IC50: 21 nM

## CC1CN(c2ccc(C#N)c3ncccc23)CC(C(=O)NCC2CN(C)CCO2)O1 (stereo not drawn) [ER-897945]
Human TLR7/8
  IC50: 2 nM

## CC1CN(c2ccc(C#N)c3ncccc23)CC(C(=O)NC2CNC2)O1 (stereo not drawn) [ER-897964]
Human TLR7/8
  IC50: 20 nM

## CC1CN(c2ccc(C#N)c3ncccc23)CC(C(=O)NC2CCNC2)O1 (stereo not drawn) [ER-897965]
Human TLR7/8
  IC50: 10 nM

## CC1CN(c2ccc(C#N)c3ncccc23)CC(C(=O)NC2CCCNC2)O1 (stereo not drawn) [ER-897967]
Human TLR7/8
  IC50: 13 nM

## CC1CN(c2ccc(C#N)c3ncccc23)CC(C(=O)NCC(F)(F)F)O1 (stereo not drawn) [ER-898563]
Human TLR7/8
  IC50: 122 nM

## CC1CN(c2ccc(C#N)c3ncccc23)CC(C(=O)NCCC(F)(F)F)O1 (stereo not drawn) [ER-898565]
Human TLR7/8
  IC50: 198 nM

## CC1CN(c2ccc(C#N)c3ncccc23)CC(C(=O)NCC2CN(C)CCO2)O1 (stereo not drawn) [ER-898707]
Human TLR7/8
  IC50: 2 nM

## CC1CN(c2ccc(C#N)c3ncccc23)CC(C(=O)NCCF)O1 (stereo not drawn) [ER-898914]
Human TLR7/8
  IC50: 168 nM

## CC1CN(c2ccc(C#N)c3ncccc23)CC(C(=O)Nc2ccnn2C)O1 (stereo not drawn) [ER-898919]
Human TLR7/8
  IC50: 55 nM

## C[C@@H]1CN(c2ccc(C#N)c3ncccc23)C[C@H](C(=O)NC2(C#N)CC2)O1 [ER-898921]
Human TLR7/8
  IC50: 302 nM

## CC1CN(c2ccc(C#N)c3ncccc23)CC(C(=O)Nc2ncns2)O1 (stereo not drawn) [ER-898922]
Human TLR7/8
  IC50: > 1000 nM

## Cc1nsc(NC(=O)C2CN(c3ccc(C#N)c4ncccc34)CC(C)O2)n1 (stereo not drawn) [ER-898923]
Human TLR7/8
  IC50: 631 nM
